# Assays:
# BAF/Tel-TRKB-Q2/sACP = target: T1, BAF/Tel-TRKB-Q2/sACP (Homo sapiens, UniProt Q16620); assay: BaF3 proliferation assay; format: cell-based, murine
# T1 construct: fused on or other part: P41212 (Transcription factor ETV6)
# [1] = system: cytokine-polarized human macrophages (M1 or M2); assay: Survival of fully differentiated, cytokine-polarized human macrophages; format: cell-based
# Experimental: Freshly isolated human PBMCs were used to purify human monocytes by negative selection using an indirect magnetic labeling system. […] Soluble factors such as cytokines (VEGFa, IL-6 etc.) and chemokines (IL-8, MCP-1, MMP9 etc.) in the culture supernatant were measured using commercial ELISA kits. The in vitro survival of human macrophages was measured using a commercially available CellTiter-Glo® system. Most observed results were repeated in multiple donors (n>5).
# cRaf = cRaf (Homo sapiens, UniProt P04049); assay: In vitro kinase assay (Table 1); format: biochemical
# Fyn = Fyn (Homo sapiens, UniProt P06241); assay: In vitro kinase assay (Table 1); format: biochemical
# PAK4 = PAK4 (Homo sapiens, UniProt O96013); assay: In vitro kinase assay (Table 1); format: biochemical
# p38alpha = p38alpha (Homo sapiens, UniProt Q16539); assay: In vitro kinase assay (Table 1); format: biochemical
# Pim1 = Pim1 (Homo sapiens, UniProt P11309); assay: In vitro kinase assay (Table 1); format: biochemical
# BAF/Tel-TYK2-1.3/sACP = target: T2, BAF/Tel-TYK2-1.3/sACP (Homo sapiens, UniProt P29597); assay: BaF3 proliferation assay; format: cell-based, murine
# T2 construct: fused on or other part: P41212 (Transcription factor ETV6)
# BAF/Tel-Ros-1.1/sACP = target: T3, BAF/Tel-Ros-1.1/sACP (Homo sapiens, UniProt P08922); assay: BaF3 proliferation assay; format: cell-based, murine
# T3 construct: fused on or other part: P41212 (Transcription factor ETV6)
# JNK2alpha2 = JNK2alpha2 (Homo sapiens, UniProt P45984); assay: In vitro kinase assay (Table 1); format: biochemical
# TRKB = TRKB (Homo sapiens, UniProt Q16620); assay: In vitro kinase assay (Table 1); format: biochemical
# PIK3C_VPS34 = PIK3C_VPS34 (Homo sapiens, UniProt Q8NEB9); assay: In vitro kinase assay (Table 1); format: biochemical
# BAF/Tel-FGR-2.1/sACP = target: T4, BAF/Tel-FGR-2.1/sACP (Homo sapiens, UniProt P09769); assay: BaF3 proliferation assay; format: cell-based, murine
# T4 construct: fused on or other part: P41212 (Transcription factor ETV6)
# PKC_theta = PKC_theta (Homo sapiens, UniProt Q04759); assay: In vitro kinase assay (Table 1); format: biochemical
# CamKII alpha = CamKII alpha (Homo sapiens, UniProt Q9UQM7); assay: In vitro kinase assay (Table 1); format: biochemical
# Aurora_A = Aurora_A (Homo sapiens, UniProt O14965); assay: In vitro kinase assay (Table 1); format: biochemical
# Nek2 = Nek2 (Homo sapiens, UniProt P51955); assay: In vitro kinase assay (Table 1); format: biochemical
# FGFR2 = FGFR2 (Homo sapiens, UniProt P21802); assay: In vitro kinase assay (Table 1); format: biochemical
# CDC2_cyclinB = CDC2_cyclinB (Homo sapiens, UniProt P06493); assay: In vitro kinase assay (Table 1); format: biochemical
# BAF/Tel-EphA3-4.2/sACP = target: T5, BAF/Tel-EphA3-4.2/sACP (Homo sapiens, UniProt P29320); assay: BaF3 proliferation assay; format: cell-based, murine
# T5 construct: fused on or other part: P41212 (Transcription factor ETV6)
# BAF/Tel-AlK-Q1/sACP = target: T6, BAF/Tel-AlK-Q1/sACP (Homo sapiens, UniProt Q9UM73); assay: BaF3 proliferation assay; format: cell-based, murine
# T6 construct: fused on or other part: P41212 (Transcription factor ETV6)
# Alk = Alk (Homo sapiens, UniProt Q9UM73); assay: In vitro kinase assay (Table 1); format: biochemical
# Pim3 = Pim3 (Homo sapiens, UniProt Q86V86); assay: In vitro kinase assay (Table 1); format: biochemical
# PKC_epsilon = PKC_epsilon (Homo sapiens, UniProt Q02156); assay: In vitro kinase assay (Table 1); format: biochemical
# Blk = Blk (Homo sapiens, UniProt P51451); assay: In vitro kinase assay (Table 1); format: biochemical
# Hyl = Hyl (Homo sapiens, UniProt P42679); assay: In vitro kinase assay (Table 1); format: biochemical
# BAF/Tel-JAK2-1.2/sACP = target: T7, BAF/Tel-JAK2-1.2/sACP (Homo sapiens, UniProt O60674); assay: BaF3 proliferation assay; format: cell-based, murine
# T7 construct: fused on or other part: P41212 (Transcription factor ETV6)
# Erk1 = Erk1 (Homo sapiens, UniProt P27361); assay: In vitro kinase assay (Table 1); format: biochemical
# BAF/Bcr-Abl-Luc/sACP = target: T8, BAF/Bcr-Abl-Luc/sACP (Homo sapiens, UniProt P00519); assay: BaF3 proliferation assay; format: cell-based, murine
# T8 construct: no part of the key; P11274 (Breakpoint cluster region protein)
# BAF/Tel-EphB2-Q2/sACP = target: T9, BAF/Tel-EphB2-Q2/sACP (Homo sapiens, UniProt P29323); assay: BaF3 proliferation assay; format: cell-based, murine
# T9 construct: fused on or other part: P41212 (Transcription factor ETV6)
# Ck1 delta = Ck1 delta (Homo sapiens, UniProt P48730); assay: In vitro kinase assay (Table 1); format: biochemical
# BAF/Tel-Src-3.1/sACP = target: T10, BAF/Tel-Src-3.1/sACP (Homo sapiens, UniProt P12931); assay: BaF3 proliferation assay; format: cell-based, murine
# T10 construct: fused on or other part: P41212 (Transcription factor ETV6)
# PDGFRKalphaT674I (h) = target: T11, PDGFRKalphaT674I (h) (Homo sapiens, UniProt P16234, T674I); assay: Kinase profiling at Invitrogen; format: biochemical
# T11 construct: purchased Invitrogen
# BaF-Tpr-MET = target: T12, BaF-Tpr-MET (Homo sapiens, UniProt P08581); assay: BaF3 proliferation assay; format: cell-based, murine
# T12 construct: expressed in transfected cells; host or cells: BaF3 (murine pro-B cell line); the other entry of the earlier key: TPR (P12270, Nucleoprotein TPR)
# BAF/Tel-FLT4-Q2/sACP = target: T13, BAF/Tel-FLT4-Q2/sACP (Homo sapiens, UniProt P35916); assay: BaF3 proliferation assay; format: cell-based, murine
# T13 construct: fused on or other part: P41212 (Transcription factor ETV6)
# T11 sequence (P16234 550-1089 T674I limits assumed): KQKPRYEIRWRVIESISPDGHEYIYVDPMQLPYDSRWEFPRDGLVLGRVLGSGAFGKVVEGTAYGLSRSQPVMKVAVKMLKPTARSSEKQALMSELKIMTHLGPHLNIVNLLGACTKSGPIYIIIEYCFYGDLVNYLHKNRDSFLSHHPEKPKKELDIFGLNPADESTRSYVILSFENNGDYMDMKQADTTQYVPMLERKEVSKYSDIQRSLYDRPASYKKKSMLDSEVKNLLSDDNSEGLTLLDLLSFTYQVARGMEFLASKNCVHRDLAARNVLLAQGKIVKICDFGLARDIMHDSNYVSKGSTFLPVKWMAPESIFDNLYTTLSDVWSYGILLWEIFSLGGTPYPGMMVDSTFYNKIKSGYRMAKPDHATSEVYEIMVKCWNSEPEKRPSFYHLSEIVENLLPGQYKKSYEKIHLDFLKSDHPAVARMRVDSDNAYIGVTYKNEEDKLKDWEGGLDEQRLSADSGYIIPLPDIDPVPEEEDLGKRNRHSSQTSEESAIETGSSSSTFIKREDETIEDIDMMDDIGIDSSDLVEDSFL
# Pim1, sequence (P11309 whole entry, species assumed): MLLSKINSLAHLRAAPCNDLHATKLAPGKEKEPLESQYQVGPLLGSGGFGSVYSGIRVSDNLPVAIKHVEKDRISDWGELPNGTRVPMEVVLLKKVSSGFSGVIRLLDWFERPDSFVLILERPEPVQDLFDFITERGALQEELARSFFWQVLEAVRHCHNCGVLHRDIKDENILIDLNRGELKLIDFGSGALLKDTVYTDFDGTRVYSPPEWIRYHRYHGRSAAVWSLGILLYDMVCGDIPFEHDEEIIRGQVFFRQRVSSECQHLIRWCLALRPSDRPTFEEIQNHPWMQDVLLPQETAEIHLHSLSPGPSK
# T7 sequence (O60674 849-1124 limits assumed, change not shown): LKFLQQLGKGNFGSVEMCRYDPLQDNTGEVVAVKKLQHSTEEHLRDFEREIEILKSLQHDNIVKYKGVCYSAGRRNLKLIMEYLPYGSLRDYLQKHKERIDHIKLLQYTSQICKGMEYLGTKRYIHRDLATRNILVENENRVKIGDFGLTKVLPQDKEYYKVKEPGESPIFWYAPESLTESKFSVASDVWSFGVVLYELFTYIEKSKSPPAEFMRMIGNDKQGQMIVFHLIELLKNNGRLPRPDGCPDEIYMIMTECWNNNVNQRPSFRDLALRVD
# Nek2, sequence (P51955 whole entry, species assumed): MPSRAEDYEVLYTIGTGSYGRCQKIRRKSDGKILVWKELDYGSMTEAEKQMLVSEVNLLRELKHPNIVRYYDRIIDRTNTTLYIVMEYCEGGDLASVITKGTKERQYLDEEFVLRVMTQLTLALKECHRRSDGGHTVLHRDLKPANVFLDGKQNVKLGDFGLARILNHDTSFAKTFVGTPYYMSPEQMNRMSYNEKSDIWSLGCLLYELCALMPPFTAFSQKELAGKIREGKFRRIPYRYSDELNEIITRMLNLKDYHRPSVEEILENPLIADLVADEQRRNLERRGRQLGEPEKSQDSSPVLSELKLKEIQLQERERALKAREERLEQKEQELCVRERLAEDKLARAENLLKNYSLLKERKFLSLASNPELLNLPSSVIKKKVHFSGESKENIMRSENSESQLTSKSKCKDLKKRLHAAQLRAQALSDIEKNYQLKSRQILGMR
# T4 sequence (P09769 263-516 limits assumed, change not shown): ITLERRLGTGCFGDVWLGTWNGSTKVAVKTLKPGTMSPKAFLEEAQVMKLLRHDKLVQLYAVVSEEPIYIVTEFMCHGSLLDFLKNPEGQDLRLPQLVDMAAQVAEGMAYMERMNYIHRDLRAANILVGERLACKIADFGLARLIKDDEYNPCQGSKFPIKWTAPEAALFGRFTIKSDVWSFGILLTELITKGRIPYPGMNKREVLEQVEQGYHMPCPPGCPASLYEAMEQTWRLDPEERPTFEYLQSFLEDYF
# Blk, sequence (P51451 whole entry, species assumed): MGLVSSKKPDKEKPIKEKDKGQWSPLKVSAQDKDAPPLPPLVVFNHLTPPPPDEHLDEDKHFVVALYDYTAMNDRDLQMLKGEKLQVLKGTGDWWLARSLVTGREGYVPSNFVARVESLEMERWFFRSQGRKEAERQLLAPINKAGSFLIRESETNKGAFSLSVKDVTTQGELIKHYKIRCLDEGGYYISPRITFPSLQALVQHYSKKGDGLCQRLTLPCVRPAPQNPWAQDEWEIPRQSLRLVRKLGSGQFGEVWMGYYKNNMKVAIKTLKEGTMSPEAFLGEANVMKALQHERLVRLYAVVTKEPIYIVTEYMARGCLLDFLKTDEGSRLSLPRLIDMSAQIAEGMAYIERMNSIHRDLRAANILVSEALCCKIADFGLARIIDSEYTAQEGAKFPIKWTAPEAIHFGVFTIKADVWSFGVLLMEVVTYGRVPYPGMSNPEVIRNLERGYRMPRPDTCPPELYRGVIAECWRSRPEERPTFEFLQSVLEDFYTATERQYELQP
# T2 sequence (P29597 897-1176 limits assumed, change not shown): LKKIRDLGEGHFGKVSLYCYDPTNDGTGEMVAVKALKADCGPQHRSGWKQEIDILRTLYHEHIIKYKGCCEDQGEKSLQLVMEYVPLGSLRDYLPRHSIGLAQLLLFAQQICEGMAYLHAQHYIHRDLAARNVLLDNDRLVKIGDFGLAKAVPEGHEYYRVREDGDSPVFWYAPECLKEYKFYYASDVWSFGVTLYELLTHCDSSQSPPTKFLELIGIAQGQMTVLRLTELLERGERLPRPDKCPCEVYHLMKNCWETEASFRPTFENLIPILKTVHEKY
# T6 sequence (Q9UM73 1116-1392 limits assumed, change not shown): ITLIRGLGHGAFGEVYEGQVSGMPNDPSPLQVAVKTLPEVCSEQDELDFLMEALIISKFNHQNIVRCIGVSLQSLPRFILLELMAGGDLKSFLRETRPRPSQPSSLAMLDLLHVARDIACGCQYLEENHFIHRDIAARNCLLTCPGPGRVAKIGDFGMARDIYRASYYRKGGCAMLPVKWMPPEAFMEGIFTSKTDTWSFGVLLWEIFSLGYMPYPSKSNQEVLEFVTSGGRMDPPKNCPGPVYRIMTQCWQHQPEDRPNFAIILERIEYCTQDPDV
# Alk, sequence (Q9UM73 19-1620, species assumed): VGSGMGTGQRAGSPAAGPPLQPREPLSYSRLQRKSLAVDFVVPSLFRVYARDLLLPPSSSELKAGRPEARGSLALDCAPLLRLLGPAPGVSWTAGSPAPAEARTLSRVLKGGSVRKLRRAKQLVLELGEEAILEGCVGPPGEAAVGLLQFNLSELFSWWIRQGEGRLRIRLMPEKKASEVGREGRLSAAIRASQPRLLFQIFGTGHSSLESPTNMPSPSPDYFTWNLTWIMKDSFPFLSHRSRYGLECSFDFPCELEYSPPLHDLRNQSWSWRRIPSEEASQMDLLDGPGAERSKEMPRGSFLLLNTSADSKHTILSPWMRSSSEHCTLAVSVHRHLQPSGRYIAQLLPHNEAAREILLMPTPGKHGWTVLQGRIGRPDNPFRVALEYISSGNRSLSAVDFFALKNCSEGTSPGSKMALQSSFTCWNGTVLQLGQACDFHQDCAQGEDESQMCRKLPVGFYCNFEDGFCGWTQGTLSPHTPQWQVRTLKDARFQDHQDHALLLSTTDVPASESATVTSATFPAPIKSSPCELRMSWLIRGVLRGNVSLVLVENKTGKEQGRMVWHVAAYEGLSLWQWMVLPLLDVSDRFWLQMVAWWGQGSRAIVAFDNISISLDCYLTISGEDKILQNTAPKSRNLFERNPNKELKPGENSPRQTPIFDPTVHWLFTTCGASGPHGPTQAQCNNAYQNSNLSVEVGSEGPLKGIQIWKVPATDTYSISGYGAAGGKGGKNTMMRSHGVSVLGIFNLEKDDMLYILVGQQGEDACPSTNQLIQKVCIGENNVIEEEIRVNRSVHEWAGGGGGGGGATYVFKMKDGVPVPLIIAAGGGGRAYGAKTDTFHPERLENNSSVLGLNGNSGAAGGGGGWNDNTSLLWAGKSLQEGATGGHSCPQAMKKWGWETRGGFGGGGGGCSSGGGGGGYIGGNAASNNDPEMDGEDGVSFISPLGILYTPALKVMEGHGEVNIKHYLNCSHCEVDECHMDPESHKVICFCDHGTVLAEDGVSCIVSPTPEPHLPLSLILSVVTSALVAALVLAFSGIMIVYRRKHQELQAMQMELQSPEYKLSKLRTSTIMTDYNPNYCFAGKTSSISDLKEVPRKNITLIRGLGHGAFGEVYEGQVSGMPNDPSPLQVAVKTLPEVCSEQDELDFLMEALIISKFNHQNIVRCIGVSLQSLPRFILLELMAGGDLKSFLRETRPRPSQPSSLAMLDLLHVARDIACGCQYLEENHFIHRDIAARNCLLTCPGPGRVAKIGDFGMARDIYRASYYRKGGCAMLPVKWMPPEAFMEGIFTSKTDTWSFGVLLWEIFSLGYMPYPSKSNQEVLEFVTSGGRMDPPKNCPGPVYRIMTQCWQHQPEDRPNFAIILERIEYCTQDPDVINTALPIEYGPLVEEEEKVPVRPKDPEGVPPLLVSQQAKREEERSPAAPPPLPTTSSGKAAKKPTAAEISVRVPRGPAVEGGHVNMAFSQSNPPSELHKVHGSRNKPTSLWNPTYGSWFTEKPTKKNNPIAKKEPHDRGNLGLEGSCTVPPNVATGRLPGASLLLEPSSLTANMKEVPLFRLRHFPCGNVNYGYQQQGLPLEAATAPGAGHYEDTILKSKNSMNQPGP
structure (smiles),measurement,setting,value
CNC(=O)c1cc(Oc2ccc3nc(NC4CCCCC4O)sc3c2)ccn1 (stereo not shown) [Compound (I)],EC50,BAF/Tel-TRKB-Q2/sACP,> 10 µM
same,"survival of fully differentiated, cytokine-polarized human macrophages (M1 or M2)",[1],did not affect
same,IC50,cRaf,> 10 µM
same,IC50,Fyn,> 10 µM
same,IC50,PAK4,> 10 µM
same,IC50,p38alpha,> 25 µM
same,IC50,Pim1,> 25 µM
same,EC50,BAF/Tel-TYK2-1.3/sACP,> 10 µM
same,EC50,BAF/Tel-Ros-1.1/sACP,> 10 µM
same,IC50,JNK2alpha2,> 10 µM
same,IC50,TRKB,> 10 µM
same,IC50,PIK3C_VPS34,> 25 µM
same,EC50,BAF/Tel-FGR-2.1/sACP,> 10 µM
same,IC50,PKC_theta,> 10 µM
same,IC50,CamKII alpha,> 10 µM
same,IC50,Aurora_A,> 10 µM
same,IC50,Nek2,> 10 µM
same,IC50,FGFR2,> 10 µM
same,IC50,CDC2_cyclinB,> 25 µM
same,EC50,BAF/Tel-EphA3-4.2/sACP,> 10 µM
same,EC50,BAF/Tel-AlK-Q1/sACP,> 10 µM
same,IC50,Alk,> 10 µM
same,IC50,Pim3,> 25 µM
same,IC50,PKC_epsilon,> 25 µM
same,IC50,Blk,> 10 µM
same,IC50,Hyl,> 10 µM
same,EC50,BAF/Tel-JAK2-1.2/sACP,> 10 µM
same,IC50,Erk1,> 10 µM
same,EC50,BAF/Bcr-Abl-Luc/sACP,> 10 µM
same,EC50,BAF/Tel-EphB2-Q2/sACP,> 10 µM
same,IC50,Ck1 delta,> 10 µM
same,EC50,BAF/Tel-Src-3.1/sACP,> 10 µM
same,inhibition at 0.5 µM,"PDGFRKalphaT674I (h); read-out: % inhibition @ 0.5 μM, PDGFRKalphaT674I (h)",-3%
same,inhibition at 5 µM,"PDGFRKalphaT674I (h); read-out: % inhibition @ 5 μM, PDGFRKalphaT674I (h)",2%
same,inhibition at 20 µM,"PDGFRKalphaT674I (h); read-out: % inhibition @ 20 μM, PDGFRKalphaT674I (h)",45%
same,EC50,BaF-Tpr-MET,> 10 µM
same,EC50,BAF/Tel-FLT4-Q2/sACP,> 10 µM
